Data as given in patent publication US5770688A, “Method and composition for the treatment of mammalian HIV infection” (GSF-Forschungszentrum fur Umwelt und Gesundheit GmbH, priority 1989, dated 1998).

How the values were obtained:
HIV-infected LC5 cells = experiment: MTT toxicity/killing of HIV infected cells (Biomek 1000); format: cell-based, human
Protocol: The KE37-1 (uninfected) and KE37-1/111β (infected) cell lines discussed below are commercially available from the Dr. Robert Gallows Laboratory of the NIH in the United States of America and grown in a medium of RPMI 1640 (GIBCO) and further supplemented with 10% fetal calf serum which contained approximately 100 units of penicillin, 100 μg streptomycin, and approximately 0.25 μg fungizone (Amphotericin B) per milliliter. The human mesenchymal cell lines LC5 and LC5-HIV, discussed below, are deposited with the Collection De L'Institut Pasteur of Paris, France on Mar. 9, 1989 and given the accession numbers I-842 and I-843, respectively. The LC5 and LC5-HIV cell lines were grown in a medium of RPMI 1640 and supplemented with 10% fetal calf serum.
A series of experiments and which are illustrated graphically in FIGS. 6 through 34, respectively, were designed to detect two extremes. In particular the tests were designed to detect the inhibition of viral release and/or the release of virus which has a reduced ability to infect other cells. This reduced ability to infect other cells is represented, for example, by glycosylation inhibitors, the direct effect on virus release is represented by acylation inhibitors, RT inhibitors and melittin (Seq. ID NO:1). The most important feature of this experimental design, however, is to detect the toxicity of melittin. The present experiments were carried out on both the astrocytoma cell line LC5-HIV (cloned infected cells) and T-lymphocytoma cell line KE37-1/IIIβ (cloned infected cells with HTLV-IIIβ). In both cases the results were essentially identical.
In the present series of experiments HIV release was tested by a fully automated laboratory robot system and which is manufactured by Beckman Instruments as the Biomek 1000. This system performed the following steps. First, chronically infected cells (cloned) are plated in microtiter plates and grown for a period of seven days. They are then challenged by melittin (Seq. ID NO:1) during this period either for the final day or throughout the period as shown in the figures. The number of living cells are quantified by MTT, that is by a metabolic (dehydrogenase) test. The MTT test is automatically performed. The toxic effect is detected at the time of the experiment and not in a separate control experiment. Furthermore, the supernatant, and which contains released virus cells from the period of time which elapsed from the last wash, and which may vary from 24 hours to 7 days, is collected from the culture, and an aliquot is saved for virus quantification by employing antigen or viral enzyme reverse transcriptase (RT). Furthermore, an aliquot is added to a culture of uninfected cells in microtiter plates for subsequent measurement of the ability of the virus cells to reinfect these uninfected cells. In this regard, the number of infected cells is automatically quantified by an immunoperoxidase staining technique. The test results, as shown, are expressed in terms of toxicity of the melittin (MTT test); the release of HIV from the primary culture (RT test); and the ability of the released virus to infect previously uninfected cells.

[1] = system: feline immunodeficiency virus (FIV); experiment: Example 3: FIV replication in naturally infected cats, quantitative FIV-PCR; format: in vivo
Protocol: To further investigate the effects of melittin (Seq. ID NO:1) on virus replication in retroviral infected cells or the inhibition of retroviral infected cell growth, a series of experiments were conducted utilizing cats which were naturally infected with the feline immunodeficiency virus (FIV). FIV is in its genomic and viral structure, in many respects, very similar to the human immunodeficiency virus (HIV). Therefore, it is widely regarded as similar to HIV, that is, it is a member of the Lentivirus subfamily, of the retrovirus family. Further, it has been determined that experimentally and naturally infected cats having FIV, display very similar disease characteristics such as immunedysfunction or other neurological disorders which can be taken as a relevant model for HIV infection in humans. This is discussed in greater detail in the article authored by Egberink et. al. "Suppression of feline immuno-deficiency virus infection in vivo by 9-(2-phosphonomethoxyethyl)adenine," Proc. Natl. Acad. Sci. 87, 3087-3091 (1990).
In the following series of experiments, two naturally FIV infected cats (M and G) were used. These particular cats were kept for more than one year under constant observation in the Clinic for Internal Medicine at the Veterinary School in Munich, Germany before the onset of melittin (Seq. ID NO:1) treatment. In each cat, FIV infection had been confirmed by detecting an antibody ELISA. In this regard, a test marketed under the tradename PetChek® and which is available from the same company in Portland, Maine was employed. As best seen in FIG. 53. The antibody titer against FIV in both cats was approximately 1:50. As a general matter, the overall physical condition of both cats was good during the observation period. Further and during the experiment, cat M developed shortly before melittin treatment a pneumonitis which was not treated in a conventional fashion. The individual body weights of each cat at the beginning of melittin treatment was 4 kilograms and 2.2 kilograms for cats M and G, respectively.
During the experiment it was determined that detectable blood serum levels of melittin (Seq. ID NO:1) of about 5 ng/ml could be detected following an injection of melittin equal to […] a few minutes after injection. […] In vitro data has shown that melittin, after this time interval, is found within the cells where it can be detected in tact for more than 48 hours. The LD50 (lethal dose where 50% of the animals perish) for melittin is not known for cats. […] The quantitative effect of melittin on FIV replication was determined quantitatively by utilizing FIV-PCR employing nested primers from the gag region. Quantification was based upon the determination of amplified product in identical samples which have been amplified after different cycle times. […]

cell free HIV = experiment: influence of melittin on cell free HIV (P24 determination, infectivity); conditions: incubation of cell free HIV

Gly-Ile-Gly-Ala-Val-Leu-Lys-Val-Leu-Thr-Thr-Gly-Leu-Pro-Ala-Leu-Ile-Ser-Trp-Ile-Lys-Arg-Lys-Arg-Gln-Gln-Amide [melittin]
killing concentration compared with concentration for effect on HIV release (HIV-infected LC5 cells): ten times higher than the effect on HIV release
lysis of HIV-infected LC5 cells (HIV-infected LC5 cells): able to lyse HIV-infected LC5 cells
selectivity for infected cells, in words (HIV-infected LC5 cells; FIGS. 6-19): appears to not selectively affect the infected cells
critical concentration at which all infected cells were killed (HIV-infected LC5 cells; infected): 10 μg per ml
reduction in virus load ([1]; FIV model, summary): 50%
amplification of FIV specific sequences, in words ([1]; cat G, day 42 and following days): a reduced amplification could already be seen in the sample from day 42 and the following days
amplification of FIV specific sequences, late samples, in words ([1]; cat M, days 56 and 116): reduced amplification
reduction of the virus load ([1]; cat M, days 56 and 116): ≥ 50%
detection of the P24 antigen (cell free HIV): does not impair the detection of the P24 antigen
virus infectivity of cell free HIV (cell free HIV): cause the virus infectivity to be reduced
